Series [1] relates to human tumor xenograft models. The settings on record: cited from earlier work.
Series [2] deals with mTOR (Homo sapiens, UniProt P42345). Particulars: read-out: mTOR IC50; literature; mTOR complexes / mTOR enzymes; cited from earlier work.
The subject of series [3] is acute lymphoblastic leukemia xenograft. Particulars: in vivo; cited from earlier work.
The conditions of series [4]: single- and repeat-dosing; cited from earlier work.
Series [5] addresses human TOR (FLAG-TOR) (Homo sapiens, UniProt P42345). As to the kind of experiment: mTOR enzyme assay (DELFIA format, purified enzyme). It is filed as biochemical. The settings on record: 800 ng/ml FLAG-TOR, 100 μM ATP, 1.25 μM His6-S6K; read-out: mTOR Kinase IC50.
The target of series [6] is PI3Kα (Homo sapiens, UniProt P42336). As to the kind of experiment: PI3Kα fluorescence polarization assay. Particulars: 20 μM PIP2, 25 μM ATP. It is filed as biochemical. A digest of the protocol:
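Kinase reaction in 20 mM HEPES pH 7.5, 2 mM MgCl2, 0.05% CHAPS with final 20 μM diC8-PIP2 and 25 μM ATP, 30-60 min at room temperature. Stopped with 10 nM TAMRA-labelled probe plus 2.5 uM GST-murine GRP; fluorescence polarization read after 90-110 minutes.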
(Polarisation of emitted light reports the rotation of a fluorescent probe.)

Series [7] deals with LNCap prostate tumor cells. Put plainly: In vitro cell growth assay (MTS), LNCap. Particulars: three days after drug treatment. It is filed as cell-based, human. A digest of the protocol: (§1)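 Tumor cells plated ~3000/well; inhibitors in DMSO added one day later (final DMSO 0.25%). After three days of treatment, viable cell density read by MTS conversion, absorbance at 490 nm. Effect expressed relative to untreated control growth.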

Series [8] has as its system MDA468 breast tumor cells. As to the kind of experiment: In vitro cell growth assay (MTS), MDA468. Format: cell-based, human. Particulars: three days after drug treatment. A digest of the protocol:
as §1

Molecules are shown by their SMILES. Where two headings read alike, the source gives them in different places. Where only a bound is given, the exact number is not on record here.

PI3Kα, sequence (P42336 whole entry, species assumed): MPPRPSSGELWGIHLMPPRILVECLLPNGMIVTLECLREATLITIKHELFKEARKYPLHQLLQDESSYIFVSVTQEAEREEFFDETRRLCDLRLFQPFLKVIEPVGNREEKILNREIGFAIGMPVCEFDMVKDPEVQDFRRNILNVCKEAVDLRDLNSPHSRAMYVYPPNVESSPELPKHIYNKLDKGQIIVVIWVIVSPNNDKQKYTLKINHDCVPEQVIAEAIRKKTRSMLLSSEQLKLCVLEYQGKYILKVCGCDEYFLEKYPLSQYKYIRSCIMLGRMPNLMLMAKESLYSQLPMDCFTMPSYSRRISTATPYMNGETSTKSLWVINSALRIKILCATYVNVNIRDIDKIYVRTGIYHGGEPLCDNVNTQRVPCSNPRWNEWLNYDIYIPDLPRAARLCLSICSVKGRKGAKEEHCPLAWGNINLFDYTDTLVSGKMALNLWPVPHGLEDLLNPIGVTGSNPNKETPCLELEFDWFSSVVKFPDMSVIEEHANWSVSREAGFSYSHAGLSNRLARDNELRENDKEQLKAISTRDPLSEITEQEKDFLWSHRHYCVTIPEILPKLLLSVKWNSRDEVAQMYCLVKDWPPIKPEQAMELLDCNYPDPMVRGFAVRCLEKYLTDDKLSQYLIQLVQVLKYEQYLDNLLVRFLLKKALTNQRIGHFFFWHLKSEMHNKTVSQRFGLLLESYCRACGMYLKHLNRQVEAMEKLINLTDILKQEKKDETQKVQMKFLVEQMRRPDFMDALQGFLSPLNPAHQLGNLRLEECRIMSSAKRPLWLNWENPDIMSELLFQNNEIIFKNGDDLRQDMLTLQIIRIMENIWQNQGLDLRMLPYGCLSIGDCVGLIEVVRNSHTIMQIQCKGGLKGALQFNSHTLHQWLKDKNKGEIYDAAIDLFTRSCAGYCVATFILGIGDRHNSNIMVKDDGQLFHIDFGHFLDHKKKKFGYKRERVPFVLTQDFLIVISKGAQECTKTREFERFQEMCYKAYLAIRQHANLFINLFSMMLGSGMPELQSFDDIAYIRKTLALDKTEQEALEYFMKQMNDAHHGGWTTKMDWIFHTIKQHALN
PI3Kα, sequence (P27986 whole entry partner, species assumed): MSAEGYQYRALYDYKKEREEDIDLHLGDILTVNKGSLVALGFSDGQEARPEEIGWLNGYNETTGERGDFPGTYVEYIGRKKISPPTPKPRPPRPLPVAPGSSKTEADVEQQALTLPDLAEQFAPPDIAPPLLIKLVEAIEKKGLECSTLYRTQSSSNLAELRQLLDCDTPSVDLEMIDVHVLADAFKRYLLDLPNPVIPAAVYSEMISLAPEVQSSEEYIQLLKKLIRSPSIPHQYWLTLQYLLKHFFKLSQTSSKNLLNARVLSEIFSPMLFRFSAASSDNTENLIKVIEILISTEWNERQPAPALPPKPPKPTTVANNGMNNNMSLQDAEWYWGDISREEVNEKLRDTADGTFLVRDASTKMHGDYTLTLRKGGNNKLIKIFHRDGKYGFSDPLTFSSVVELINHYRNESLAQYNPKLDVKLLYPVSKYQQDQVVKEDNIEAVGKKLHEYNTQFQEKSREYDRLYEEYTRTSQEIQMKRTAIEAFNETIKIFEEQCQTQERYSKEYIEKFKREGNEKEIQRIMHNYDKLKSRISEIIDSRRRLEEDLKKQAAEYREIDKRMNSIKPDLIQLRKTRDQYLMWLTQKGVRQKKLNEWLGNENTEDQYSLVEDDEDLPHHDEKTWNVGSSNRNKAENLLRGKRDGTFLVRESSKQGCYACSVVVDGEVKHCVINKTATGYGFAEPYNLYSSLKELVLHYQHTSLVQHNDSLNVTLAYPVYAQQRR

Regarding `Cn1c(=O)n(-c2ccc(C(C)(C)C#N)cc2)c2c3cc(-c4cnc5ccccc5c4)ccc3ncc21` [NVP-BEZ-235, 2-methyl-2-(4-(3-methyl-2-oxo-8-(quinolin-3-yl)-2,3-dihydro-1H-imidazo[4,5-c]quinolin-1-yl)phenyl)propanenitrile], the “activity in human tumor xenograft models” value in [1] (prostrate (PC-3) and glioblastoma (U-87)) was “demonstrated activity”.
Consider `O=c1cc(Oc2ccccn2)c2ccccc2[nH]1` [Example 137, 4-(pyridin-2-yloxy)quinolin-2(1H)-one], for which the melting point was > 360 °C.
As for `FC(F)c1nc2ccccc2n1-c1nc(N2CCOCC2)nc(N2CCOCC2)n1` [ZSTK474, 2-(2-difluoromethylbenzoimidazol-1-yl)-4,6-dimorpholino-1,3,5-triazine], in series [1] (chronic oral administration, 400 mg/kg, A549, PC-3, WiDr), the “tumor growth in mouse human xenograft cancer models” value is recorded as “completely inhibited growth”. For the same compound, in [2], the IC50 is > 10 µM.
On to `Oc1cccc(-c2nc(N3CCOCC3)c3oc4ncccc4c3n2)c1` [PI103, 3-(4-(4-morpholinyl)pyrido[3′,2′:4,5]furo[3,2-d]pyrimidin-2-yl)phenol], for which the “activity in human tumor xenograft models” value in series [1] (I.P. dosing in mice, U87MG, PC3, MDA-MB-468, MDA-MB-435, HCT 116, SKOV3, IGROV-1) is reported as “demonstrated activity”.
On to `CN1CCN(c2cccc(Oc3cc(=O)[nH]c4ccccc34)c2)CC1` [Example 140, 4-[3-(4-methylpiperazin-1-yl)phenoxy]quinolin-2(1H)-one], for which the melting point fell in the range of 218 to 221 °C.
The same measure, in the same setting: as for `O=c1cc(Oc2cccnc2)c2ccccc2[nH]1` [Example 119, 4-(pyridin-3-yloxy)quinolin-2(1H)-one], the figure is 242 to 243 °C.
For `CO[C@H]1C[C@@H]2CC[C@@H](C)[C@@](O)(O2)C(=O)C(=O)N2CCCC[C@H]2C(=O)O[C@H]([C@H](C)C[C@@H]2CC[C@@H](OC(=O)C(C)(CO)CO)[C@H](OC)C2)CC(=O)[C@H](C)/C=C(\C)[C@@H](O)[C@@H](OC)C(=O)[C@H](C)C[C@H](C)/C=C/C=C/C=C/1C` [Torisel], the “activity in NOS/SCID xenograft mouse model of acute lymphoblastic leukemia” value in [3] is on record as “active”.
`O=c1cc(Oc2cccc(OCc3ccccc3)c2)c2ccccc2[nH]1` [Example 57, 4-[3-(benzyloxy)phenoxy]quinolin-2(1H)-one]: the melting point is 262 to 265 °C.
As to `O=C1NC(=O)/C(=C/c2ccc3nccc(-c4ccncc4)c3c2)S1` [GSK-1059615], the “exposure in phase 1 clinical study” value in [4] is listed as “lack of sufficient exposure”.
`CN(Cc1cccnc1)c1cccc(Oc2cc(=O)[nH]c3ccccc23)c1` [Example 161, 4-{3-[methyl(pyridin-3-ylmethyl)amino]phenoxy}quinolin-2(1H)-one]: the melting point was 187 to 193 °C (dec.).
On to `CCN(CC)CCOc1cccc(Oc2cc(=O)[nH]c3ccccc23)c1`, for which the IC50 in [5] was 0.32 µM; in [6] it was > 10 µM; in series [7] (Homo sapiens, LNCaP, 72 h), 7 µM; in series [8] (Homo sapiens, 72 h) it was 28 µM.
In the same order, the values of `O=c1cc(Oc2ccccc2)c2cc(-c3cccnc3)ccc2[nH]1` are 8.5 µM, 7.44 µM, > 60 µM and > 60 µM.
Turning to `O=c1cc(Oc2ccc(C3N=CCN3)cc2)c2ccccc2[nH]1` (stereo not drawn), the half-inhibitory concentration (IC50) is 0.78 µM in series [5]; > 10 µM in series [6]; 45 µM in [7] (Homo sapiens, LNCaP, 72 h); 60 µM in [8] (Homo sapiens, 72 h).
Taken in the same sequence, the figures for `Nc1ccc(-c2cccc(Oc3cc(=O)[nH]c4ccccc34)c2)cn1` were 0.09 µM, 9 µM, 23 µM and 1.95 µM.
Taken in the same sequence, the figures for `Nc1ccc(-c2cccc(Oc3cc(=O)[nH]c4ccccc34)c2)cc1` were 0.29 µM, 9.52 µM, 11 µM and 30 µM.
In the same order, the values of `O=c1cc(Oc2ccc(Cl)cc2)c2ccccc2[nH]1` are 0.96 µM, 2.48 µM, > 60 µM and 49 µM.
On to `O=c1cc(Oc2cccc(-c3ccsc3)c2)c2ccccc2[nH]1`, for which the IC50 in [5] was 0.63 µM; in series [6] it was 0.63 µM; in series [7] (Homo sapiens, LNCaP, 72 h) it was 30 µM; in series [8] (Homo sapiens, 72 h), 60 µM.
With `Nc1nc(Cl)c(CNc2cccc(Oc3cc(=O)[nH]c4ccccc34)c2)c(Cl)n1`, the IC50 is 0.17 µM in series [5]; > 10 µM in series [6]; 5.2 µM in series [7] (Homo sapiens, LNCaP, 72 h); 3.5 µM in series [8] (Homo sapiens, 72 h).
Taken in the same sequence, the figures for `N#C[BH2-][n+]1cccc(CNc2cccc(Oc3cc(=O)[nH]c4ccccc34)c2)c1` were 0.03 µM, 7.38 µM, 2.3 µM and 4.2 µM.
As to `COc1ccc(CNc2cccc(Oc3cc(=O)[nH]c4ccccc34)c2)cn1`, the half-maximal inhibitory concentration (IC50) in series [5] turned out to be 0.31 µM; in [6], 4.07 µM; in [7] (Homo sapiens, LNCaP, 72 h), 4.1 µM; in series [8] (Homo sapiens, 72 h) it was 12 µM.
Taken in the same sequence, the figures for `O=c1cc(Oc2cccc(-c3cc[nH]n3)c2)c2ccccc2[nH]1` were 0.15 µM, 6.67 µM, 30 µM and 60 µM.
Taken in the same sequence, the figures for `O=c1cc(Oc2cccc(NCc3ccc(Oc4ccc(F)cc4)cc3)c2)c2ccccc2[nH]1` were 3.5 µM, > 10 µM, 5.3 µM and 12 µM.
Consider `Cc1cccc(Oc2cc(=O)[nH]c3ccccc23)c1` [drawing 249], for which the IC50 is 0.24 µM in [5], 0.736 µM in series [6], 7.5 µM in series [7] and 20 µM in [8].
Consider `N#CCc1cccc(Oc2cc(=O)[nH]c3ccccc23)c1`, for which the IC50 in [5] was 0.3 µM; in [6] it was 5.8 µM; in series [7] (Homo sapiens, LNCaP, 72 h), 4.2 µM; in series [8] (Homo sapiens, 72 h) it was 22 µM.
Consider `O=C(NCCO)c1ccc(-c2cccc(Oc3cc(=O)[nH]c4ccccc34)c2)cc1`, for which the half-inhibitory concentration (IC50) in [5] is 0.23 µM; in [6], > 10 µM; in series [7] (Homo sapiens, LNCaP, 72 h), > 60 µM; in [8] (Homo sapiens, 72 h), > 60 µM.
Regarding `CN(Cc1cccnc1)c1cccc(Oc2cc(=O)[nH]c3ccccc23)c1` [drawing 372], the 50% inhibitory concentration (IC50) worked out at 0.42 µM in series [5]; 1.96 µM in series [6]; 13 µM in series [7] (Homo sapiens, LNCaP, 72 h); 20 µM in series [8] (Homo sapiens, 72 h).

As a reminder, the melting point is the temperature of the solid-liquid transition. What is called IC50 is the concentration that inhibits the measured activity by half.

Source of the values: patent publication US20100068204A1, “4-ARYLOXYQUINOLIN-2(1H)-ONES AS MTOR KINASE AND PI3 KINASE INHIBITORS, FOR USE AS ANTI-CANCER AGENTS” (Wyeth, priority 2008, published 2010).
